US20230021483A1, “[…] […] METHOD AND CLASSIFICATION OF PHARMACEUTICAL COMPONENTS BY USING TRANSCRIPTOMES” (National Institutes of Biomedical Innovation, Health and …, priority 2016, published 2023)

Tests used:
liver (LV) = experiment: Whole organ transcriptome (GeneChip microarray) of liver 6 h after adjuvant administration: sDEGs, hierarchical clustering; type: in vivo, C57BL/6 mice; conditions: i.d. administration, liver, 6 h after adjuvant
[1] = test system: preferentially upregulated genes in LV, SP, LN; experiment: Z-score-based differential gene expression analysis (adjuvant group- or adjuvant-associated genes, 40 module mapping, TargetMine annotation); type: in vivo, C57BL/6 mice; conditions: ID, LV
How it was run: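 Gene groups for each organ were built from combined z-score cutoffs across adjuvants, ranging from z>1 to z>3. Scores came from fold changes standardized per gene over the whole organ data set, with the three replicate z-scores added per adjuvant; sums above 3 marked preferential expression.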

Monophosphoryl lipid A [MPLA]
−0.5: Gm9706///Isg15 1431591_s_at (Group G1, Modules 20) ([1]; sample x1) | Ifit1 1450783_at (Group G1, Modules 20) ([1]; sample x1) | Ifit3 1449025_at (Group G1, Modules 20) ([1]; sample x1) | Rsad2 1436058_at (Group G1, Modules 20) ([1]; sample x1) | Stat1 1450033_a_at (Group G1, Modules 20) ([1]; sample x1) | Gm9706///Isg15 1431591_s_at (Group G1, Modules 20) ([1]; sample x2) | Ifit1 1450783_at (Group G1, Modules 20) ([1]; sample x2) | Ifit3 1449025_at (Group G1, Modules 20) ([1]; sample x2) | Irf7 1417244_a_at (Group G1, Modules 20) ([1]; sample x2) | Irgm1 1418825_at (Group G1, Modules 20) ([1]; sample x2) | Rnf213 1455500_at (Group G1, Modules 20) ([1]; sample x2) | Rsad2 1436058_at (Group G1, Modules 20) ([1]; sample x2) | Stat1 1450033_a_at (Group G1, Modules 20) ([1]; sample x2) | Stat1 1450034_at (Group G1, Modules 20) ([1]; sample x2) | Ddx58 1436562_at (Group G1, Modules 20) ([1]; sample x3) | G3bp2 1421323_a_at (Group G1, Modules 20) ([1]; sample x3) | Gm9706///Isg15 1431591_s_at (Group G1, Modules 20) ([1]; sample x3) | Ifit1 1450783_at (Group G1, Modules 20) ([1]; sample x3) | Ifit3 1449025_at (Group G1, Modules 20) ([1]; sample x3) | Irf7 1417244_a_at (Group G1, Modules 20) ([1]; sample x3) | Mndal 1426906_at (Group G1, Modules 20) ([1]; sample x3) | Rnf213 1455500_at (Group G1, Modules 20) ([1]; sample x3) | Rsad2 1436058_at (Group G1, Modules 20) ([1]; sample x3) | Stat1 1450034_at (Group G1, Modules 20) ([1]; sample x3) | Tor1aip2 1435526_at (Group G1, Modules 20) ([1]; sample x3) | Trim12a 1437432_a_at (Group G1, Modules 20) ([1]; sample x3)
−0.1: Uba7 1426970_a_at (Group G1, Modules 20) ([1]; sample x1) | Ddx58 1456890_at (Group G1, Modules 20) ([1]; sample x2) | Tor1aip2 1435526_at (Group G1, Modules 20) ([1]; sample x2)
−0.3: Ddx58 1436562_at (Group G1, Modules 20) ([1]; sample x1) | Eif2ak2 1422005_at (Group G1, Modules 20) ([1]; sample x1) | G3bp2 1421323_a_at (Group G1, Modules 20) ([1]; sample x1) | H2-T10///H2-T22///H2-T9 1449875_s_at (Group G1, Modules 20) ([1]; sample x1) | Pml 1456103_at (Group G1, Modules 20) ([1]; sample x1) | Shisa5 1437503_a_at (Group G1, Modules 20) ([1]; sample x1) | Tdrd7 1426716_at (Group G1, Modules 20) ([1]; sample x1) | Adar 1434268_at (Group G1, Modules 20) ([1]; sample x2) | H2-T10///H2-T22///H2-T9 1449875_s_at (Group G1, Modules 20) ([1]; sample x2) | Pml 1448757_at (Group G1, Modules 20) ([1]; sample x2) | Shisa5 1437503_a_at (Group G1, Modules 20) ([1]; sample x2) | Tdrd7 1426716_at (Group G1, Modules 20) ([1]; sample x2) | Tor1aip2 1418116_at (Group G1, Modules 20) ([1]; sample x2) | Adar 1434268_at (Group G1, Modules 20) ([1]; sample x3) | Pml 1456103_at (Group G1, Modules 20) ([1]; sample x3) | Shisa5 1423986_a_at (Group G1, Modules 20) ([1]; sample x3)
−0.4: Ifih1 1426276_at (Group G1, Modules 20) ([1]; sample x1) | Irf7 1417244_a_at (Group G1, Modules 20) ([1]; sample x1) | Irgm1 1418825_at (Group G1, Modules 20) ([1]; sample x1) | Pml 1448757_at (Group G1, Modules 20) ([1]; sample x1) | Rnf213 1455500_at (Group G1, Modules 20) ([1]; sample x1) | Stat1 1450034_at (Group G1, Modules 20) ([1]; sample x1) | Tor1aip2 1418115_s_at (Group G1, Modules 20) ([1]; sample x1) | Trim12a 1437432_a_at (Group G1, Modules 20) ([1]; sample x1) | Adar 1425405_a_at (Group G1, Modules 20) ([1]; sample x2) | Ddx58 1436562_at (Group G1, Modules 20) ([1]; sample x2) | Eif2ak2 1422005_at (Group G1, Modules 20) ([1]; sample x2) | Ifih1 1426276_at (Group G1, Modules 20) ([1]; sample x2) | Mndal 1426906_at (Group G1, Modules 20) ([1]; sample x2) | Pml 1456103_at (Group G1, Modules 20) ([1]; sample x2) | Shisa5 1423986_a_at (Group G1, Modules 20) ([1]; sample x2) | Tor1aip2 1418115_s_at (Group G1, Modules 20) ([1]; sample x2) | Ddx58 1456890_at (Group G1, Modules 20) ([1]; sample x3) | Eif2ak2 1422005_at (Group G1, Modules 20) ([1]; sample x3) | H2-T10///H2-T22///H2-T9 1449875_s_at (Group G1, Modules 20) ([1]; sample x3) | Ifih1 1426276_at (Group G1, Modules 20) ([1]; sample x3) | Pml 1448757_at (Group G1, Modules 20) ([1]; sample x3) | Shisa5 1437503_a_at (Group G1, Modules 20) ([1]; sample x3) | Tdrd7 1426716_at (Group G1, Modules 20) ([1]; sample x3)
−0.2: Adar 1425405_a_at (Group G1, Modules 20) ([1]; sample x1) | Ddx58 1456890_at (Group G1, Modules 20) ([1]; sample x1) | Mndal 1426906_at (Group G1, Modules 20) ([1]; sample x1) | Shisa5 1423986_a_at (Group G1, Modules 20) ([1]; sample x1) | Tor1aip2 1435526_at (Group G1, Modules 20) ([1]; sample x1) | Uba7 1426970_a_at (Group G1, Modules 20) ([1]; sample x2) | Tor1aip2 1418116_at (Group G1, Modules 20) ([1]; sample x3)
−0: Adar 1434268_at (Group G1, Modules 20) ([1]; sample x1) | Tor1aip2 1418116_at (Group G1, Modules 20) ([1]; sample x1)
−0.6: G3bp2 1421323_a_at (Group G1, Modules 20) ([1]; sample x2) | Trim12a 1437432_a_at (Group G1, Modules 20) ([1]; sample x2) | Adar 1425405_a_at (Group G1, Modules 20) ([1]; sample x3) | Irgm1 1418825_at (Group G1, Modules 20) ([1]; sample x3) | Stat1 1450033_a_at (Group G1, Modules 20) ([1]; sample x3) | Tor1aip2 1418115_s_at (Group G1, Modules 20) ([1]; sample x3) | Uba7 1426970_a_at (Group G1, Modules 20) ([1]; sample x3)
9: Number of gene probes with statistically significant changes (sDEGs), LV, Up (liver (LV); fold change >1.5, p<0.01, customized PA call=1)
24: Number of gene probes with statistically significant changes (sDEGs), LV, Down (liver (LV); fold change <0.667, p<0.01, customized PA call=1)
